Experimental data published in patent EP0598515A1, “Method for herbicidal activity-enhancing, activity-enhanced herbicidal composition and activity-enhancing composition” (ISHIHARA SANGYO KAISHA LTD., priority 1992, dated 1994).
Values joined by “and” are separate entries in the source; they are usually repeats but may differ in a detail not shown here. Identical values can stand only once.

Test system: Crabgrass (Digitaria sanginalis L.)
Test: Test Example 5: pot test with kinds of vegetable oil
Assay type: in vivo
Conditions: Example 7 water dispersible granules, 0.2% by volume Frigate + 0.4% by volume vegetable oil (90 parts oil, 10 parts Geronol VO/278), 23 days after treatment, duplicate
Protocol: Crabgrass (Digitaria sanginalis L.) seeds were sown in 1/1,000,000-hectare pots filled with upland soil and arranged in a duplicate system. When the crabgrass plants grew to a 3.5- to 4.0-leaf stage, water dispersible granules obtained in Example 7 described hereinbefore was diluted with 200 liters/hectare of water containing 0.2% by volume of Frigate and 0.4% by volume of a vegetable oil which was previously prepared by mixing with a predetermined amount of Geronol VO/278 (trade name) and was applied foliarly to the plants with a small spray gun.
Twenty three days after treatment, the growth inhibition of the plants was evaluated with visual observation in the same manner as in Test Example 1 and are shown in Table 5.
In the test, a vegetable oil, a fatty acid originated therefrom and an alkylester of the fatty acid were used as the vegetable oil and which are each of mixture of 10 parts by weight of Geronol VO/278 and 90 parts by weight of the following vegetable oil, fatty acids originated from vegetable oils and alkylesters of fatty acids. • (a) corn oil • (b) fatty acid originated from corn oil (prepared by hydrolysis of corn oil) • (c) methylester of (b) • (d) methylester of fatty acid originated from cottonseed oil • (e) methylester of fatty acid originated from rapeseed oil • (f) methyl oleate (trade name: ADJ-100) • (g) butyl oleate (trial product No. 93091; produced by Takemoto Oils and Fats) TABLE 5

## CCCCCCCC/C=C\CCCCCCCC(=O)OCCCC [g, butyl oleate]
Compound A 2.5 g/ha
  Growth Inhibition (%) of Crabgrass: 70%
Compound A 5 g/ha
  Growth Inhibition (%) of Crabgrass: 95% and 80%

## CCCCCCCC/C=C\CCCCCCCC(=O)OC [f, methyl oleate]
Compound A 2.5 g/ha
  Growth Inhibition (%) of Crabgrass: 60%
Compound A 5 g/ha
  Growth Inhibition (%) of Crabgrass: 90%
